From patent US8895695B2, “Template-fixed beta-hairpin peptidomimetics with CXCR4 antagonizing activity” (priority 2003, dated 2014)

How the values were obtained:
[1] = tested on: 'CCR5' cells / Hut/4-3 cells co-cultivation; assay: FIGS-Assay; format: cell-based; conditions: 200 nM peptide, 48 hours of co-cultivation
Experimental: The assay was performed according to ref. 5, below. Stock dilutions of the peptides (10 mM) were prepared by dissolving in 10 mM Tris-HCl at room temperature. Stock solutions were kept at +4° C., light protected. Working dilutions were prepared extemporaneously by serial dilution in Phosphate Buffered Saline (PBS) and added in a final volume of 10 μl directly to the cell cultures. After 48 hours of co-cultivation the cultures were rinsed with PBS and then exposed to glutaraldehyde/formaldehyde (0.2%/2%) in PBS for five minutes. For photometric quantification the fixed cultures were subsequently incubated with ortho-nitro-phenyl-galactopyranoside (ONPG) as a β-galactosidase substrate, which was enzymatically converted into the chromophore ortho-nitrophenol (ONP). The read out is directly obtained by measuring optical density of wells at 405 nm in an iEMS 96well-plate reader.
(§1) All fine chemicals came from Merck (Darmstadt, Germany).

CCRF-CEM cells = assay: Chemotactic assay (cell migration assay); format: cell-based; conditions: 1 nM SDF-1, 4 hours
Experimental: as §1
2.7. Chemotactic Assay (Cell Migration Assay)
The chemotactic response of CCRF-CEM cells to a gradient of stromal cell-derived factor 1α (SDF-1) was measured using disposable assay plates from Neuroprobe (5μ pore size) (Gaithersburg, Md.), according to the manufacturer's directions and references therein [especially ref. 8, below]. Briefly, one 175 cm^2 flask was washed once with Dubecco's phosphate buffered saline (DPBS), and trypsinized for 10 minutes or until cells had lifted. The trypsin was neutralized by the addition of fresh medium containing serum and the cells were pelleted, washed once in DPBS, and resuspended at 1-0.5×10^7 cells/ml in RPMI+0.5% bovine serum albumin (BSA). 45 μl of cell suspension were mixed with 5 μl of 10-fold concentrated PEM peptide diluted in the same assay medium. […] The optical absorbance at 595 nm (ABS595) was read using a Tecan Genios plate reader with Magellan software. The number of cells migrated was determined by comparing ABS595 values against a standard curve generated with a known number of cells in the assay plate and were plotted against SDF-1 concentration to obtain a sigmoidal curve and to determine the IC50 values. The values for IC50 were determined using the Trendline function in Microsoft Excel by fitting a logarithmic curve to the averaged datapoints.

[2] = Pharmacokinetic study (PK) after single i.v. and i.p. administration; format: in vivo, male CD-1 mice
Experimental: 2.9. Pharmacokinetic Study (PK)
30 grams (±20%) male CD-1 mice obtained from Charles River Laboratories Deutschland GmbH were used in the study. The vehicle, physiological saline, was added to give a final concentration of 1 mg/ml of the compounds. […] Approximately 250-300 μl of blood was removed under light isoflurane anesthesia from the retro-orbital plexus at predetermined time intervals (0, 5, 15, 30 min and 1, 2 and 3 hours for the i.v. study and 0, 15, 30 min and 1, 2, 4 and 8 hours for the i.p. study) and added to heparinized tubes. Plasma was removed from pelleted cells upon centrifugation and frozen at −80° C. prior to HPLC-MS analysis.
Preparation of the Plasma Calibration Samples
“Blank” mouse plasma from untreated animals was used. […] The OASIS® HLB cartridges were conditioned with 1 ml of methanol and then with 1 ml of 1% NH3 in water. Samples were then diluted with 700 μl of 1% NH3 in water and loaded.
The plate was washed with 1 ml of methanol/1% NH3 in water 5/95. Elution was performed using 1 ml of 0.1% TFA in methanol.
The plate containing eluates was introduced into the concentrator system and taken to dryness. The residues were dissolved in 100 μL of formic acid 0.1%/acetonitrile, 95/5 (v/v) and analysed in the HPLC/MS on a reverse phase analytical column (Jupiter C18, 50×2.0 mm, 5 μm, Phenomenex), using gradient elution (mobile phases A: 0.1% formic acid in water, B: Acetonitrile; from 5% B to 100% B in 2 min.).
Preparation of Plasma Samples
Samples coming from animal treatments were pooled in order to obtain an appropriate volume for the extraction. If the total volume obtained was less than 0.2 ml the appropriate amount of “blank” mouse plasma was added in order to keep the matrix identical to the calibration curve. Samples were than spiked with IS and processed as described for the calibration curve.
Pharmacokinetic Evaluation
PK analysis was performed on pooled data (generally n=2 or 3) using the software PK solutions 2.0™ (Summit Research Service, Montrose, Colo. 81401 USA). The area under the curve AUC was calculated by the linear trapezoidal rule. AUC(t-∞) was estimated as Ct/b (b: elimination rate constant). […] the sum of AUC(0-t) and AUC(t-∞). Elimination half-life was calculated by the linear regression on at least three data points during the elimination phase. The time intervals selected for the half-life determinations were evaluated by the correlation coefficient (r^2), which should be at least above 0.85 and most optimally above 0.96. In case of i.v. administration the initial concentration at tzero was determined by extrapolation of the curve through the first two time points. Finally bioavailability after i.p. administration was calculated from the normalised AUC(0-∞) ration after i.p. versus i.v. administration.

[3] = male, CD-1, mouse, in vivo, ip, 10 mg/kg
[4] = male, CD-1, mouse, in vivo, iv, 2 mg/kg

N=C(N)NCCC[C@@H]1NC(=O)[C@@H]2CSSC[C@H](NC(=O)[C@H](Cc3ccc4ccccc4c3)NC(=O)[C@H](CCCNC(=N)N)NC(=O)[C@H](CCCNC(=N)N)NC(=O)[C@H]3CCCN3C(=O)CNC1=O)C(=O)N[C@@H](Cc1ccc(O)cc1)C(=O)N[C@@H](CCCNC(N)=O)C(=O)N[C@@H](CCCCN)C(=O)N1CCC[C@@H]1C(=O)N1CCC[C@H]1C(=O)N[C@@H](Cc1ccc(O)cc1)C(=O)N[C@@H](CCCNC(=N)N)C(=O)N[C@@H](CCCNC(N)=O)C(=O)N2 [Ex. 51]
FIGS % inhibition at 200 nM [1]: 93.9%
IC50 (CCRF-CEM cells): 0.275 µM
times lower normalised Cmax after i.p. administration versus i.v. ([2]; i.p. 10 mg/kg versus i.v. 2 mg/kg, mouse): 45 times
AUC [2, 3]: 1300 ng·h/mL
AUC(0-inf) [2, 3]: 12900 ng·h/mL
AUC(0-t) [2, 3]: 11100 ng·h/mL
Tmax [2, 3]: 2 h
half-life [2, 3]: 2.5 h
level at 0.25 h [2, 3]: 673 ng/mL
level at 0.5 h [2, 3]: 1570 ng/mL
level at 1 h [2, 3]: 2010 ng/mL
level at 2 h [2, 3]: 3160 ng/mL
level at 4 h [2, 3]: 1020 ng/mL
level at 8 h [2, 3]: 519 ng/mL
Cmax ([2]; male, CD-1, mouse, in vivo, ip, 10 mg/kg, Cmax ng/ml): 3160 ng/mL
Cmax ([2]; male, CD-1, mouse, in vivo, ip, 10 mg/kg, Cmax norm.): 316 ng/mL
AUC [2, 4]: 953 ng·h/mL
AUC(0-inf) [2, 4]: 1900 ng·h/mL
AUC(0-t) [2, 4]: 1700 ng·h/mL
Tmax [2, 4]: 0 h
half-life [2, 4]: 2.8 h
level at 0.083 h [2, 4]: 1460 ng/mL
level at 0.25 h [2, 4]: 328 ng/mL
level at 0.5 h [2, 4]: 300 ng/mL
level at 1 h [2, 4]: 80 ng/mL
level at 2 h [2, 4]: 68 ng/mL
level at 3 h [2, 4]: 49 ng/mL
Cmax ([2]; male, CD-1, mouse, in vivo, iv, 2 mg/kg, Cmax ng/ml (extrapolated Cinitial)): 28600 ng/mL
Cmax ([2]; male, CD-1, mouse, in vivo, iv, 2 mg/kg, Cmax observed): 1460 ng/mL
% absorbed (F) (percentage of normalized AUC0-inf. intraperitoneal against normalized AUC0-inf i.v.) ([2]; mouse, in vivo, 2 mg/kg): 100%
% absorbed (F) (percentage of normalized AUC0-inf. intraperitoneal against normalized AUC0-inf i.v.) ([2]; mouse, in vivo, 10 mg/kg): 136%
β ([2]; mouse, in vivo, ip, 10 mg/kg): 0.28 h⁻¹
β ([2]; mouse, in vivo, iv, 2 mg/kg): 0.24 h⁻¹
